Consider 1 compound from patent US20240336642A1 (The General Hospital Corporation, priority 2021, published 2024).

The structures appear in SMILES notation.

The nature of series [1]: Metabolic stability of exemplified compounds (Example 4). It counts as in vitro ADME.
A short description of series [2]: Aqueous solubility of exemplified compounds (Example 3). It counts as physicochemical. The conditions noted are these: aqueous solubility.
Series [3] deals with Rat Primary Neuron. Put plainly: Rat Primary Neuron EC50. The format is cell-based.
The test system of series [4] is COX-1. Put plainly: Selectivity versus COX-1. The format is biochemical.
Series [5] addresses Human 12/15-LOX HEK (Homo sapiens (Human), UniProt P16050). Put plainly: Human 12/15-LOX HEK EC50. It counts as cell-based.
Series [6] addresses 15-LOX2 (Homo sapiens (Human), UniProt O15296). Put plainly: Selectivity versus 15-LOX2. It counts as biochemical.
The subject of series [7] is experimental stroke model in mice (MCAO). Put plainly: Long-term outcome after MCAO: Garcia score. The conditions noted are these: 40 mg/kg i.v. 2 hours post reperfusion. The format is in vivo, mouse. As for the experimental part: Long-term outcome experiment: 40 mg/kg cmpd. 1 delivered I.V. 2 hours post reperfusion, same as short term, compared to vehicle (10% solutol/90% PEG400). 45 mice operated, and 27 survived, mice were sacrificed on day 30.

Series [8] addresses h12/15-LOX (Homo sapiens (Human), UniProt P16050). Put plainly: 12/15-LOX enzyme inhibition IC50 assay (Examples 1 and 2). The format is biochemical. As for the experimental part: Enzyme was then added to the cuvettes. […] The % inhibition for each test compound concentration were calculated as follows: […]
In series [9] the target is Mouse 12/15-LOX E. coli (Mus musculus (Mouse), UniProt P39654). Put plainly: Mouse 12/15-LOX E. coli IC50. It counts as biochemical.
Mouse 12/15-LOX E. coli, sequence (P39654 whole entry): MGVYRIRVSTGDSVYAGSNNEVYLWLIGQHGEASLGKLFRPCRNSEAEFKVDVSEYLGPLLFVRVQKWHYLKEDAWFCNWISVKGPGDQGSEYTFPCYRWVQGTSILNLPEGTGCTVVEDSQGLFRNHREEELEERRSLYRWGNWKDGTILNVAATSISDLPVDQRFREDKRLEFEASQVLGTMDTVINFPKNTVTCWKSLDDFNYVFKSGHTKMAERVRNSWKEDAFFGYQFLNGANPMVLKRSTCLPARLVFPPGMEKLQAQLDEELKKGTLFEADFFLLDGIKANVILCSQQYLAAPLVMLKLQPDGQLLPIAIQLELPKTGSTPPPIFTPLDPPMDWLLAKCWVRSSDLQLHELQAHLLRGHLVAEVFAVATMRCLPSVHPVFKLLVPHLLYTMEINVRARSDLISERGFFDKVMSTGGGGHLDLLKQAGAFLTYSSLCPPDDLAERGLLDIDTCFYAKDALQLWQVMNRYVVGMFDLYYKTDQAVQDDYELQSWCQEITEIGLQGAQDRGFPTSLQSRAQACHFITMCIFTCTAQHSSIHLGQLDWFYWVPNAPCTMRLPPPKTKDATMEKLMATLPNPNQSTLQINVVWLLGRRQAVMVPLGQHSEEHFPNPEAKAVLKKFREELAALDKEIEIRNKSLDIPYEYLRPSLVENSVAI
Series [10] concerns SAH wild-type mice. Put plainly: Subarachnoid hemorrhage (SAH) mouse model. The format is in vivo. The conditions noted are these: wild-type mice with SAH. The text has this: The effect of the exemplified compounds (which are, e.g., inhibitors of 12/15-LOX as discussed herein) on treating bran injury after subarachnoid hemorrhage can be assessed in a mouse model as described, for example, in Gaberel et al, Stroke, 2019, 50, 520-523, which is incorporated herein by reference in its entirety. Subarachnoid hemorrhage (SAH) is a devastating form of stroke. It may lead to substantial brain injury. The mouse model to study the impact of 12/15-LOX inhibitors on subarachnoid hemorrhage includes C57Bl6 wild-type mice and Alox15 knockout mice. These mice are subjected to SAH using direct blood injection technique. […] Immunohistochemistry, brain edema, blood-brain barrier leakage and functional outcomes were assessed 1 and 3 days after SAH induction. […]
All animal experiments were performed following protocols approved by the Massachusetts General Hospital Institutional Animal Care and Use Committee in accordance with the National Institutes of Health Guide for the Care and Use of Laboratory Animals. […] Sample sizes were evaluated as follows: based on prior experience, coefficients of variation around 35% between mice are expected. […]
Except the mice used for IHC 24 h after SAH induction, all mice were assessed at 72 hours using a 4-point Neuroscore scale, a 18 point Neuroscore scale, and by evaluating spontaneous activity. […]

For series [11], the system named is experimental stroke model in mice (MCAO). Put plainly: Mouse stroke model, filament middle cerebral artery occlusion (MCAO), infarct size. The format is in vivo. As for the experimental part: Studies were carried out in experimental stroke model in mice, using the filament model of middle cerebral artery occlusion (MCAO). For intraperitoneal delivery, compounds were dissolved in DMSO. A number of exemplified compounds were able to reduce infarct size when given at a dosage of 40 mg/kg.
40 mg/kg cmpd. 1 were given i.p. at time of reperfusion. Infarct size was measured at 24 hours after 60 minutes MCAO.
MCAO (Experimental Middle Cerebral Artery Ischemia and Functional Recovery) experiment: 40 mg/kg of compound delivered intraperitoneally 2 h post reperfusion, 60 minutes MCAO, sacrifice at 24 h, infarct size determined by TTC staining.

h12/15-LOX, sequence (P16050 whole entry): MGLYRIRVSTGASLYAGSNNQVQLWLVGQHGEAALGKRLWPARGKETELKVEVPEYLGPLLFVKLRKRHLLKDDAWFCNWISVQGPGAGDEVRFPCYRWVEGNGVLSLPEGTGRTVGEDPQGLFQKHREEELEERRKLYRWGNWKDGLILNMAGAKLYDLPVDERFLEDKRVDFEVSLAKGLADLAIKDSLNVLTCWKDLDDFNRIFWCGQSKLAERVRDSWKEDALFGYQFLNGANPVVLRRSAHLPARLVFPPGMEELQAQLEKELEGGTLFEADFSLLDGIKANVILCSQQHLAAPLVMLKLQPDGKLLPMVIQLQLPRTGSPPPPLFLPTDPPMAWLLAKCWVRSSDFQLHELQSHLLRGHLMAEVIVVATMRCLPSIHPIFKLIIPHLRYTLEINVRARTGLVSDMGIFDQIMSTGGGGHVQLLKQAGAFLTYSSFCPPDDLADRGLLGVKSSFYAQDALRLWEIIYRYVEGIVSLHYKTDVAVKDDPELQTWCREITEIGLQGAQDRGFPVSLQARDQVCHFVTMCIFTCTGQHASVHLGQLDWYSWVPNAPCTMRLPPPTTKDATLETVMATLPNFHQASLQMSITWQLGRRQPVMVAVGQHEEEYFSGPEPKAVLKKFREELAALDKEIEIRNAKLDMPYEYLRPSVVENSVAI
15-LOX2, sequence (O15296 whole entry, the tested form may be a part): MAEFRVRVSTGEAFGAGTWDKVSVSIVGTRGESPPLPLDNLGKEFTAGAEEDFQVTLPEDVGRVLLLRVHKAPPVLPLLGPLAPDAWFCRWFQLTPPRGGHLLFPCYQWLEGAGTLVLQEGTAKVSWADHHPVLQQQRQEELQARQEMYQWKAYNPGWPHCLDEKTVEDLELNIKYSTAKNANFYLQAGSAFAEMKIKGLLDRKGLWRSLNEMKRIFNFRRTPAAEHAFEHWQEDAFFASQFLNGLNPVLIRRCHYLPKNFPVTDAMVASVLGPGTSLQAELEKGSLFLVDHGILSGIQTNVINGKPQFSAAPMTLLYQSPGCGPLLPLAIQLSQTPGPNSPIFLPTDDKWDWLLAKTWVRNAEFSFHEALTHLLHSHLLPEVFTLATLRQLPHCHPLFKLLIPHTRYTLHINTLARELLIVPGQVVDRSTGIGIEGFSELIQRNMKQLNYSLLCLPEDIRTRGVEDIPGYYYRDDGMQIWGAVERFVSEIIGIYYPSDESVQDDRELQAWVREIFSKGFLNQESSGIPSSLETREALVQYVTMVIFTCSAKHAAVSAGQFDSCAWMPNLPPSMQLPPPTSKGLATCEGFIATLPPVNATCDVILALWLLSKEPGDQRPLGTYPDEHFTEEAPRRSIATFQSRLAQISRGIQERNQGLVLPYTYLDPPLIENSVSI
Human 12/15-LOX HEK, sequence (P16050 whole entry): as the sequence (P16050 whole entry) above

As usually defined, the microsomal CLint is the rate of metabolic loss divided by the concentration. Read a low microsomal CLint as greater metabolic stability. The EC50 is the concentration at which the effect is half-maximal. The low end stands for greater potency, the high end for weaker potency. As usually defined, the IC50 is the concentration needed to halve the response being measured. The low end stands for greater potency, the high end for weaker potency. As to `CNc1oc(-c2cc(Cl)cc(Cl)c2Cl)nc1C#N` [Compound 1, 5-(methylamino)-2-(2,3,5-trichlorophenyl) oxazole-4-carbonitrile], the “Extr (EH)” value in [1] (Human liver microsomes) was “** (“**” 50-100%)”; in series [1] (Mouse liver microsomes), “** (“**” 50-100%)”; in series [1] (Rat liver microsomes), “* (“*” <50%)”. Besides, the intrinsic clearance (microsomal CLint) in series [1] (Human liver microsomes) was 20 to 100 µL/min/mg; in series [1] (Mouse liver microsomes) it was 20 to 100 µL/min/mg; in [1] (Rat liver microsomes), under 20 µL/min/mg. Also, the Sol result in series [2] was “+ (“+” < 10 μM)”. The EC50 in series [3] came out at 9500 nM; in series [5], 920 nM. The “selectivity over COX-1” value in series [4] is reported as over 400 fold. In [6], the “selectivity over 15-LOX2” value is over 400 fold. The “Garcia score, improvement compared to vehicle treatment” value in [7] (Day 3) was 23.8%; in series [7] (Week 4), 68.5%. The values for the IC50 in series [8] and in [9] were 120 nM and 180 nM, respectively. In series [8] (h12/15-LOX, read-out: Max % inhibition), the Emax turned out to be 94%. Besides, the “Mouse 12/15-LOX E. coli % max” value in [9] was found to be 82%. The “Neuronal cell death after SAH” value in series [10] is on record as “reduced”. The infarct size reduction was found to be 25.8% in series [11] (20 mg/kg i.v. 2 hours post reperfusion); 34.1% in series [11] (40 mg/kg i.v. in 10% Solutol/90% PEG400, 2 h after reperfusion, 24 h); 37.2% in series [11] (female mice, 40 mg/kg i.p. at time of reperfusion, 24 h after 60 minutes MCAO); 33.4% in series [11] (male mice, 40 mg/kg i.p. at time of reperfusion, 24 h after 60 minutes MCAO).
